Laboratory results published in ChEMBL document CHEMBL6074655, “Vindeburnol: A natural product-inspired chemical tool for central nervous system drug design” (Eur J Med Chem, 2024).

Assays:
[1] = Toxicity in female mouse assessed as mortality rate at 50 mg/kg, iv; assay type: organism-based; details: in vivo
[2] = Toxicity in male mouse assessed as mortality rate at 50 mg/kg, iv; assay type: organism-based; details: in vivo

O[C@@H]1C[C@H]2CCCN3CCc4c(n1c1ccccc41)[C@H]23
mortality [1]: 64%
mortality [2]: 70%
